Results on 4 compounds are retold here after patent publication US12428433B2, “Fluorine-containing heterocyclic derivatives with macrocyclic structure and use thereof” (ScinnoHub Pharmaceutical Co., Ltd, priority 2019, dated 2025).

Molecules are shown by their SMILES. pIC50: −log10 of the molar value. Where two headings read alike, the source gives them in different places.

One assay concerns Ba/F3-LMNA-NTRK1-G667S. Description: In-vitro cell viability (CellTiter-Glo), BaF3 cell lines. The class given is cell-based. The following applies: Mus musculus, 72 hours. On the procedure:
Hefei Precedo Biomedical Technology Co., Ltd. was commissioned to complete the testing example, and the cell lines used were constructed by this company.
In-vitro anti-proliferative effects of the compound of the present application on 6 BaF3 cell lines were measured.
6 Ba/F3 cell lines were cultured with RPMI 1640 (Biological Industries, Israel)+10% fetal calf serum (Biological Industries, Israel)+1% double antibiotics (Penicillin Streptomycin solution, Coring, USA), and cells were cultured for two generations after resuscitation, to be tested.
The to-be-tested compound was prepared into 10 mM mother solution with DMSO, and then diluted to 1 mM with DMSO. The solution was diluted by 3 times to prepare into 1.0000 mM, 0.3333 mM, 0.1111 mM, 0.03704 mM, 0.01235 mM, 0.00412 mM, 0.00137 mM, 0.00046 mM, 0.00015 mM, and […], and stored in a 96-well drug plate (Beaver, Suzhou), with 10 concentration gradients in total. Meanwhile, an equal volume of DMSO solvent was used as a negative control.
The prepared 1,000× compounds of 10 concentration gradients were respectively diluted by 50 times into 20× compounds with complete medium, and stored in a 96-well drug plate (Beaver, Suzhou), with 10 concentration gradients in total. Meanwhile, an equal volume of DMSO solvent was used as a negative control.
Cell suspension in logarithmic growth phase was inoculated on a 96-well white cell culture plate (Corning 3917, NY, USA), and a volume of each well was 95 μl (about 2000 cells/well).
5 μl of 20× to-be-tested compounds were respectively added into the culture plate containing 95 μl of cell suspension above, and mixed evenly, with 2 wells for each concentration gradient. Final concentrations of the to-be-tested compounds were 1.0000 μM, 0.3333 μM, 0.1111 μM, 0.03704 μM, 0.01235 μM, 0.00412 μM, 0.00137 μM, 0.00046 μM, 0.00015 μM, and […] respectively.
Incubation was carried out in an incubator at 37° C. under 5% CO2 for 72 hours.
The following steps were carried out according to the instruction of Promega CellTiter-Glo Luminescence Cell Viability Assay Kit (Promega-G7573).
A corresponding […] value RLU of each well was obtained through reading by SpectraMax Paradigm. Cell viability data was processed by the following formula:
Cell viability(%)=(RLUDrug−RLUMin)/(RLUMax−RLUMin)*100%. Cell viabilities of compounds of different concentrations were calculated in EXCEL, then cell viability curves were made by GraphPad Prism software, and related parameters were calculated. The parameters comprised a maximum cell viability, a minimum cell viability, and an IC50 value.
(In general: Cellular ATP, detected with luciferase, serves as a proxy for viable cell number.)

The target of the next assay is TRKA(G595R) (Homo sapiens (Human), UniProt P04629, G595R). Description: Kinase inhibitory activity (Caliper mobility shift), TRKA(G595R). The class given is biochemical. On the procedure: (§1) […] (Shanghai) Co., Ltd. was commissioned to complete the testing example. […] 3.1 A tested compound was accurately weighed and dissolved in 100% DMSO to prepare into a 10 mM solution. […] 3.2.3 A kinase solution of 2.5 times final concentration was prepared with 1×kinase buffer. […] 3.2.5 The reaction plate was shaken and mixed evenly, and then incubated at room temperature for 10 minutes. 3.2.6 Mixed solutions of ATP and kinase substrate 22 of 5 times and 3 times final concentrations were prepared with 1×kinase buffer. 3.2.7 15 μL of mixed solution of ATP and substrate of 5 times or 3 times final concentration was added. 3.2.8 The 384-well plate was centrifuged at 1,000 rpm for 30 seconds, shaken and mixed evenly, and then incubated at room temperature for corresponding time. 3.2.9 The kinase reaction was terminated. 3.2.10 A conversion rate was read by the microplate reader Caliper EZ Reader. Calculation Formula Inhibition rate %=(conversion rate % maximum-conversion rate % sample)/(conversion rate % maximum-conversion rate % minimum)×100 wherein the conversion rate % sample was: a reading number of a conversion rate of a sample; the conversion rate % minimum was: an average value of the negative control well, which represented a reading number of a conversion rate without an enzyme activity well; and the conversion rate % maximum was: an average value of a ratio of the positive control well, which represented a reading number of a conversion rate without a compound inhibition well.

A further assay has as its system Ba/F3 LMNA-NTRK1-G667C. The experiment in a line: In-vitro cell viability (CTG), NTRK mutant cells. The class given is cell-based. The following applies: Mus musculus, read-out: Ba/F3 LMNA-NTRK1-G667C IC50. How it is done:
(§2) Hefei Precedo Biomedical Technology Co., Ltd. was commissioned to complete the testing example, and NTRK mutant cells used were constructed by this company.
(§3) Inhibitory effects of the compound of the present application on growth of three NTRK mutant cells (Ba/F3 LMNA-NTRK1-G667C, Ba/F3 EVT6-NTRK3-G623R and Ba/F3 LMNA-NTRK1-G595R) were measured.
(§4) Cells in logarithmic growth phase were collected and counted by a blood platelet counter, a cell concentration was adjusted to 3 to 6×10^4 cell/mL, 90 μL of cell suspension was added into a 96-well plate, and cells in the 96-well plate were cultured at 37° C. under 5% CO2 and 95% humidity overnight.
(§5) The to-be-tested compound was prepared into a 10 times drug solution in a medium containing 1% DMSO, with […] and the drug solution was diluted by 3 times in sequence to obtain drug solutions with 9 concentrations in total. […] 10 μL of prepared drug solution was added into each well of the 96-well plate in which the cells were inoculated. Then, 90 μL of medium containing 1% DMSO was added to obtain a drug solution with a highest concentration of 1 μM, and the drug solution was diluted by 3 times in sequence to obtain drug solutions with 9 concentrations in total. A final concentration of DMSO in each well was 0.1%, and three multiple wells were provided for the drug of each concentration. The cells in the 96-well plate in which the drug has been added were cultured at 37° C. under 5% CO2 and 95% humidity for 72 hours, and then subjected to CTG analysis.
(§6) An equal volume of CTG solution was added into each well, the 96-well plate was placed at room temperature for 20 minutes to stabilize a luminescence signal, and a luminescence value was read.
(§7) Data was analyzed by GraphPad Prism 7.0 software, and fitted by nonlinear S-curve regression to obtain a dose-effect curve, from which an IC50 value was calculated. Cell survival rate (%)=(Lum to-be-tested drug−Lum medium control)/(Lum cell control−Lum medium control)×100%.

Another assay relates to Ba/F3 LMNA-NTRK1-G595R. The experiment in a line: In-vitro cell viability (CTG), NTRK mutant cells. It counts as cell-based. To be noted: Mus musculus, read-out: Ba/F3 LMNA-NTRK1-G595R IC50. How it is done: as §2, §3, §4, §5, §6, §7
In a further assay the test system is Ba/F3 EVT6-NTRK3-G623R. Description: In-vitro cell viability (CTG), NTRK mutant cells. It counts as cell-based. The following applies: for pIC50: Mus musculus, read-out: Ba/F3 EVT6-NTRK3-G623R IC50. How it is done:
as §2, §3, §4, §5, §6, §7

A further assay has as its target TRKa (Homo sapiens (Human), UniProt P04629). The experiment in a line: Kinase inhibitory activity (Caliper mobility shift), TRKa. It counts as biochemical. On the procedure: as §1

TRKA(G595R), sequence (P04629 33-796 G595R): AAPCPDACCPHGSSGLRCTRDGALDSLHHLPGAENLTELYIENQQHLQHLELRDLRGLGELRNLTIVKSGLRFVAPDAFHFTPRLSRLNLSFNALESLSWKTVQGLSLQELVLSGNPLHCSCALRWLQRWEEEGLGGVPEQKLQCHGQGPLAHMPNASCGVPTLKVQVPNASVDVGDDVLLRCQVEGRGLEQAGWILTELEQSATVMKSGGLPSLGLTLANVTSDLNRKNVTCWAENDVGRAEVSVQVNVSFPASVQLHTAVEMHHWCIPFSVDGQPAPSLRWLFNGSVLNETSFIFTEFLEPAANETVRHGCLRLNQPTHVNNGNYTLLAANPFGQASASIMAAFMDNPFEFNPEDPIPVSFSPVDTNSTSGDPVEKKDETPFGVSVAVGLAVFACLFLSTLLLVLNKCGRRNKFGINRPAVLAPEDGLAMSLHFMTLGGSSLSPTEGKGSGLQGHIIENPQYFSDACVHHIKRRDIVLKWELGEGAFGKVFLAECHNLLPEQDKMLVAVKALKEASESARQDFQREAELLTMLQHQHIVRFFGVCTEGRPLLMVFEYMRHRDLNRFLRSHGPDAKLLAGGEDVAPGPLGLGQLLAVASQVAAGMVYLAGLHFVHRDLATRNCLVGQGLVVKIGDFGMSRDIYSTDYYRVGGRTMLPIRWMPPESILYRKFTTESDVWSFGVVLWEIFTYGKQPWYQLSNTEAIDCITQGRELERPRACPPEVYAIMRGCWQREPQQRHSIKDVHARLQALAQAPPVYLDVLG
TRKa, sequence (P04629 33-796): as the sequence (P04629 33-796 G595R) above, with R563G counted along it

`O=C1N[C@H]2C[C@H](C2)Oc2ncc(F)cc2[C@H]2CCCN2c2ccn3ncc1c3n2` (stereo in doubt) [Positive control 1, reference compound]: the pIC50 in the assay with Ba/F3-LMNA-NTRK1-G667S is 8.57; at TRKA(G595R) it was 9.14; in the assay with Ba/F3 LMNA-NTRK1-G667C (BaF3, 72 hours, CTG), 8.74; with Ba/F3 LMNA-NTRK1-G595R (BaF3, 72 hours, CTG), 8.74; in the assay on Ba/F3 EVT6-NTRK3-G623R (BaF3, 72 hours, CTG), 7.74; at TRKa it was 9.41.

Regarding `O=C1N[C@H]2C[C@H](C2)Oc2ncc(F)cc2[C@H]2CCCN2c2nc3c1cnn3cc2F` [Example 2, ((1^3E,1^4E,2^2R,5^1S,5^3S)-1^6,3^5-difluoro-4-oxa-6-aza-1(5,3)-pyrazolo[1,5-a]pyrimidine-3(3,2)-pyridine-2(1,2)-pyrrolidine-5(1,3)-cyclobutancycloheptan-7-one], the pIC50 with Ba/F3-LMNA-NTRK1-G667S was 8.47; in the assay on Ba/F3 LMNA-NTRK1-G667C (BaF3, 72 h), 8.52; in the assay on Ba/F3 LMNA-NTRK1-G595R (BaF3, 72 h), 8.64; with Ba/F3 EVT6-NTRK3-G623R (BaF3, 72 h) it was 7.85.

As for `C[C@H]1Nc2nc3c(cnn3cc2F)C(=O)N[C@H]2C[C@H](C2)Oc2ncc(F)cc21` [Example 3, (3^1S,3^3S,6^3E,6^4E,8R)-1^5,6^6-difluoro-8-methyl-2-oxo-4,7-diaza-6(3,5)-pyrazolo[1,5-a]pyrimidine-1(2,3)-pyridine-3(1,3)-cyclobutylcyclooctane-5-one], the pIC50 was 8.08 in the assay with Ba/F3-LMNA-NTRK1-G667S; 9.05 at TRKA(G595R); 8.49 in the assay with Ba/F3 LMNA-NTRK1-G667C (BaF3, 72 hours, CTG); 8.35 in the assay with Ba/F3 LMNA-NTRK1-G595R (BaF3, 72 hours, CTG); 7.60 in the assay on Ba/F3 EVT6-NTRK3-G623R (BaF3, 72 hours, CTG); 9.44 at TRKa. Further, in the assay on Ba/F3 EVT6-NTRK3-G623R (Ba/F3 EVT6-NTRK3-G623R, data of Table 2), the “inhibitory activity higher than that of the positive control compound 2” value is given as 4 times.

With `C[C@H]1Nc2ccn3ncc(c3n2)C(=O)N[C@H]2C[C@H](C2)Oc2ncc(F)cc21` [Positive control 2, reference compound], the pIC50 is 7.70 in the assay with Ba/F3-LMNA-NTRK1-G667S; 9.01 at TRKA(G595R); 8.19 with Ba/F3 LMNA-NTRK1-G667C (BaF3, 72 hours, CTG); 7.89 in the assay on Ba/F3 LMNA-NTRK1-G595R (BaF3, 72 hours, CTG); 6.97 in the assay on Ba/F3 EVT6-NTRK3-G623R (BaF3, 72 hours, CTG); 9.37 on TRKa.
